Test results published in ChEMBL document CHEMBL1201862, “PubChem BioAssay data set” (2004).
The source made the active and inactive calls.

Assays:
[1] = growth induction of Burl-1 ts yeast mutant, dose response, counter-screen for SUMOylation pathway inhibitor project, whole organism, S. cerevisiae, luminescence (AID 463199); assay type: functional
[2] = target: T1, Delta-type opioid receptor (Homo sapiens, UniProt P41143); test: DOR antagonists, SAR follow-up, image-based (AID 2357); assay type: functional
Mu-type opioid receptor [3] = target: T2, Mu-type opioid receptor (Homo sapiens, UniProt P35372); test: MOR antagonists, SAR follow-up, image-based (AID 2420); assay type: functional;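 also: compounds added before stimulation of receptor with agonist DAMGO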
[4] = target: T3, Kappa-type opioid receptor (Homo sapiens, UniProt P41145); test: SAR analysis of small molecule agonists of the kappa opioid receptor via a luminescent beta-arrestin assay. [Related pubchem assays (depositor defined):AID1777, AID1786, AID1966, AID2133, AID2136, AID2348, AID2352, AID2357, AID2359, AID2370, AID2420, AID2478, AID2491, AID2492, AID2493, AID2497, AID2498, AID2500, AID449737, AID488822, AID488842]; assay type: functional
[5] = target: T3, Kappa-type opioid receptor; test: KOR agonist analogs, arrestin-GFP redistribution, SAR follow-up, imaging, image-based, set 3 (AID 488833); assay type: functional
[6] = target: T1, Delta-type opioid receptor; test: SAR Analysis of Agonists of the DOR Receptor using an Image-Based Assay - Set 3. [Related pubchem assays (depositor defined):AID1777, AID1786]; assay type: functional
[7] = target: T3, Kappa-type opioid receptor; test: KOR agonist analogs, imaging readout, SAR follow-up, image-based (AID 2359); assay type: functional
Mu-type opioid receptor [8] = target: T2, Mu-type opioid receptor; test: MOR agonists by imaging, SAR follow-up, image-based (AID 2352); assay type: functional
[9] = target: T3, Kappa-type opioid receptor; test: KOR antagonists by imaging, SAR follow-up, image-based (AID 2348); assay type: functional
Mu-type opioid receptor [10] = target: T2, Mu-type opioid receptor; test: SAR Analysis of Agonists of the MOR Receptor using an Image-Based Assay - Set 3. [Related pubchem assays (depositor defined):AID1777, AID1785, AID1786, AID1966, AID2133, AID2136, AID2284, AID2285, AID2352]; assay type: functional
[11] = target: T1, Delta-type opioid receptor; test: DOR agonists, SAR follow-up, image-based (AID 2370); assay type: functional
[12] = target: T3, Kappa-type opioid receptor; test: SAR analysis of small molecule agonists of the kappa opioid receptor via a luminescent beta-arrestin assay - Set 3. [Related pubchem assays (depositor defined):AID1777, AID1785, AID1786, AID1966, AID2133, AID2136, AID2284, AID2500]; assay type: functional
[13] = target: T4, Zinc finger protein mex-5 (Caenorhabditis elegans, UniProt Q9XUB2); test: MEX-5/TCR-2 RNA interaction inhibitors, dose response, biochemical, C. elegans, fluorescence polarization (AID 1960)
T4 sequence (Q9XUB2 whole entry): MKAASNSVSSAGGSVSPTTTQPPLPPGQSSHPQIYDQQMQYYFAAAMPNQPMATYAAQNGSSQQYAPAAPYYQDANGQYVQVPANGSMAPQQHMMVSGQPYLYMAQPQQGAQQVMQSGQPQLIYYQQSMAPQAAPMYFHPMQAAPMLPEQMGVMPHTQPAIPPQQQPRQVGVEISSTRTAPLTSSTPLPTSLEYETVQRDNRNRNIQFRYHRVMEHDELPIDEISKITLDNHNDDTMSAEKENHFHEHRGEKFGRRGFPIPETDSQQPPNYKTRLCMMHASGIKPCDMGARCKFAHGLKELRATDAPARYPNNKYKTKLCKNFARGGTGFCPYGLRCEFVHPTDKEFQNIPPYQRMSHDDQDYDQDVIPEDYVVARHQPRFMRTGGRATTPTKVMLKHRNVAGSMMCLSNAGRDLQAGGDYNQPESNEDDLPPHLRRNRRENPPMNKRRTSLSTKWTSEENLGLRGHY

[14] = target: T5, Voltage-gated N-type calcium channel alpha-1B subunit/Amyloid beta A4 precursor protein-binding family A member 1 (Homo sapiens, UniProt Q00975+Q02410); assay type: protein assay
[15] = target: T6, Dual specificity protein phosphatase 6 (Rattus norvegicus, UniProt Q64346); test: MKP-3 phosphatase inhibitors, primary screen, biochemical, rat enzyme, in vitro (AID 425)
T6 sequence (Q64346 whole entry): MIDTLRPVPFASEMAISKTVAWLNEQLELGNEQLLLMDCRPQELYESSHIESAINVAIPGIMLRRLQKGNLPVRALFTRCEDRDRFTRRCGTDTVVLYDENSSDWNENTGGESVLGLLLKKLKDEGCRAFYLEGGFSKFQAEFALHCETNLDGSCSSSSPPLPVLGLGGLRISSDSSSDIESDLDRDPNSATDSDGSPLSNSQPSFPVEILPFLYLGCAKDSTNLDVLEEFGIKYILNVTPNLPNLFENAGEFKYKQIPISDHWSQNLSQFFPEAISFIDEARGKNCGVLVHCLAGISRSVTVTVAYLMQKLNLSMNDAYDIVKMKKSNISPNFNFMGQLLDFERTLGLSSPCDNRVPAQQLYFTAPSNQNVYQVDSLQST

[16] = target: T7, Dual specificity protein phosphatase 3 (Homo sapiens, UniProt P51452); test: VHR1 phosphatase inhibitors, primary screen, biochemical, absorbance, uHTS (AID 1654)
[17] = target: T8, Serine/threonine-protein phosphatase (Homo sapiens, UniProt Q9BPW0); test: Counterscreen for inhibitors of PP1: fluorescence-based biochemical high throughput dose response assay to identify inhibitors of Protein Phosphatase 5 (PP5). [Related pubchem assays: 2034 (Summary (PP5 inhibitors)), 1987 (PP5 inhibitors in singlate), 2235 (PP1 inhibitors in singlate)]
T8 sequence (Q9BPW0 whole entry): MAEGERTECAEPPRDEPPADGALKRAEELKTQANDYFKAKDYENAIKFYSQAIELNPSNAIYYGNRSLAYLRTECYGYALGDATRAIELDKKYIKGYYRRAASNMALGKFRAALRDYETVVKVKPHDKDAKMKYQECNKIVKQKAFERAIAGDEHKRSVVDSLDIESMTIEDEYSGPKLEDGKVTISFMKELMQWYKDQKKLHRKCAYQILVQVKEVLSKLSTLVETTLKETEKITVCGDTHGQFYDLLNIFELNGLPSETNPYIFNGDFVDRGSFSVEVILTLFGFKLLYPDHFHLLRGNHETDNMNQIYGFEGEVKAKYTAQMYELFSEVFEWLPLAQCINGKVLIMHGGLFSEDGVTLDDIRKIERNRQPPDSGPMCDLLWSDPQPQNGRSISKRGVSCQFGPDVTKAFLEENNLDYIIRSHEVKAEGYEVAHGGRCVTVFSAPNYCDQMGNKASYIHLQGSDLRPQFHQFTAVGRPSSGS

[18] = target: T5, Voltage-gated N-type calcium channel alpha-1B subunit/Amyloid beta A4 precursor protein-binding family A member 1; assay type: protein assay; remark: listed apart in the source
[19] = target: Serine/threonine-protein phosphatase PP1-alpha catalytic subunit (Homo sapiens, UniProt P62136); test: PP1 phosphatase inhibitors, dose response, biochemical, fluorescence (AID 2403);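 also: phosphatase turnover of OMFP into fluorescent 3-O-methylfluorescein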
[20] = target: T7, Dual specificity protein phosphatase 3; test: VHR1 phosphatase inhibitors, biochemical (AID 1878)
Apelin receptor = Apelin receptor (Homo sapiens, UniProt P35414); test: APJ beta-arrestin recruitment antagonism, SAR follow-up, selectivity assay for CCR6 antagonist project, cell-based, luminescent, enzyme-fragment complementation (AID 588359); assay type: functional
[21] = target: T9, Mannose-6-phosphate isomerase (Homo sapiens, UniProt P34949); test: PMI enzyme inhibitors, confirmation, biochemical, fluorescence intensity (AID 1535)
T9 sequence (P34949 whole entry): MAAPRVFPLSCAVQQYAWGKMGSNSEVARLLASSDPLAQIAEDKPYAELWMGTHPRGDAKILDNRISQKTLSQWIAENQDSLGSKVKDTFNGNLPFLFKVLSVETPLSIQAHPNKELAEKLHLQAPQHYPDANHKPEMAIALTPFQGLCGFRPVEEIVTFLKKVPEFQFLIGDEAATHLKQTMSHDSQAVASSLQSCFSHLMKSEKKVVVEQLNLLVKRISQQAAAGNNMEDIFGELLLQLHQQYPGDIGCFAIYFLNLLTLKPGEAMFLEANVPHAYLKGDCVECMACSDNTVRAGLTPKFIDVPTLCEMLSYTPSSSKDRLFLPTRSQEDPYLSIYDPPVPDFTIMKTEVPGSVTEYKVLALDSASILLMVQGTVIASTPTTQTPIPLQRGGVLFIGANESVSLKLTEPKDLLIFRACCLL

Phosphomannomutase 2 = Phosphomannomutase 2 (Homo sapiens, UniProt O15305); test: Counter screen SAR assay for PMM2 inhibitors via a fluorescence intensity assay. [Related pubchem assays (depositor defined):AID1545, AID1574]
CAAX prenyl protease 1 = CAAX prenyl protease 1 (Saccharomyces cerevisiae S288c, UniProt P47154); test: Ste24 protease inhibitors, dose response, biochemical, S. cerevisiae, plate reader, cherry-pick (AID 488815)
Trypsin = Trypsin (Sus scrofa, UniProt P00761); test: porcine trypsin inhibitors, dose response, selectivity assay for Rce1 protease inhibitor project, biochemical, quenched peptide fluorescence, cherry-pick (AID 488789)

T3 sequence (P41145 whole entry): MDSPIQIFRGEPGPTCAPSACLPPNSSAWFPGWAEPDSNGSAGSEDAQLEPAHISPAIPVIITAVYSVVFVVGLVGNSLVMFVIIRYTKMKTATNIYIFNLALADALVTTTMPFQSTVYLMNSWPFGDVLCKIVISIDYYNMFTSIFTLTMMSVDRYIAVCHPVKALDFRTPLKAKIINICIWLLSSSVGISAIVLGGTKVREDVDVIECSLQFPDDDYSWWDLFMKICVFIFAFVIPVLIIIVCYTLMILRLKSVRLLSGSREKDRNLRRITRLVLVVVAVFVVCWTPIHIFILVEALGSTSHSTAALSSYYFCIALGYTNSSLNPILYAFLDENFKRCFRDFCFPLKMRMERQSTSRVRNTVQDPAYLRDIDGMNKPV
T2 sequence (P35372 whole entry): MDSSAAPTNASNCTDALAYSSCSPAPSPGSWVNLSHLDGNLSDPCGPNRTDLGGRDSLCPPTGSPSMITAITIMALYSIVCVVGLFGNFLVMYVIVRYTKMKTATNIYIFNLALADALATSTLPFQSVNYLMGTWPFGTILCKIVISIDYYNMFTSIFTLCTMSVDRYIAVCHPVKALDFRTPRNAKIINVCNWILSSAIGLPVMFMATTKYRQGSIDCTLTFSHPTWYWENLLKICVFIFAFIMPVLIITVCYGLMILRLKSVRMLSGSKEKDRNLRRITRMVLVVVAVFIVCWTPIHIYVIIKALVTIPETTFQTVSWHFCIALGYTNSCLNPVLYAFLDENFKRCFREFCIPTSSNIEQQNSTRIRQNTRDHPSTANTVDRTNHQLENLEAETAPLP
T1 sequence (P41143 whole entry): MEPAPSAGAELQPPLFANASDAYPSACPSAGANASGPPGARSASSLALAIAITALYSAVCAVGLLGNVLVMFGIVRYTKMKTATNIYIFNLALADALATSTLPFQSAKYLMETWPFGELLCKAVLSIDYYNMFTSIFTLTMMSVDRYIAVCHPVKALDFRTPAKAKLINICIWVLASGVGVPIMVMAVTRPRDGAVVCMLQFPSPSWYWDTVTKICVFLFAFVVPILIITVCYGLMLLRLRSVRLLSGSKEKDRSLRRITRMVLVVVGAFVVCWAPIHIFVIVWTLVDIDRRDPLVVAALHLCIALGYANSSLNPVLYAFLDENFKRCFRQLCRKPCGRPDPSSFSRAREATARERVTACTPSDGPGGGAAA
T7 sequence (P51452 whole entry): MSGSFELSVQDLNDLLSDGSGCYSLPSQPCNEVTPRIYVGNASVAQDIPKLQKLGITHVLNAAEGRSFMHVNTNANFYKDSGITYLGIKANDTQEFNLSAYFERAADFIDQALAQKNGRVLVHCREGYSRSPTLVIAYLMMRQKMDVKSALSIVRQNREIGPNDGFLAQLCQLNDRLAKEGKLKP
T5 sequence (Q00975 whole entry): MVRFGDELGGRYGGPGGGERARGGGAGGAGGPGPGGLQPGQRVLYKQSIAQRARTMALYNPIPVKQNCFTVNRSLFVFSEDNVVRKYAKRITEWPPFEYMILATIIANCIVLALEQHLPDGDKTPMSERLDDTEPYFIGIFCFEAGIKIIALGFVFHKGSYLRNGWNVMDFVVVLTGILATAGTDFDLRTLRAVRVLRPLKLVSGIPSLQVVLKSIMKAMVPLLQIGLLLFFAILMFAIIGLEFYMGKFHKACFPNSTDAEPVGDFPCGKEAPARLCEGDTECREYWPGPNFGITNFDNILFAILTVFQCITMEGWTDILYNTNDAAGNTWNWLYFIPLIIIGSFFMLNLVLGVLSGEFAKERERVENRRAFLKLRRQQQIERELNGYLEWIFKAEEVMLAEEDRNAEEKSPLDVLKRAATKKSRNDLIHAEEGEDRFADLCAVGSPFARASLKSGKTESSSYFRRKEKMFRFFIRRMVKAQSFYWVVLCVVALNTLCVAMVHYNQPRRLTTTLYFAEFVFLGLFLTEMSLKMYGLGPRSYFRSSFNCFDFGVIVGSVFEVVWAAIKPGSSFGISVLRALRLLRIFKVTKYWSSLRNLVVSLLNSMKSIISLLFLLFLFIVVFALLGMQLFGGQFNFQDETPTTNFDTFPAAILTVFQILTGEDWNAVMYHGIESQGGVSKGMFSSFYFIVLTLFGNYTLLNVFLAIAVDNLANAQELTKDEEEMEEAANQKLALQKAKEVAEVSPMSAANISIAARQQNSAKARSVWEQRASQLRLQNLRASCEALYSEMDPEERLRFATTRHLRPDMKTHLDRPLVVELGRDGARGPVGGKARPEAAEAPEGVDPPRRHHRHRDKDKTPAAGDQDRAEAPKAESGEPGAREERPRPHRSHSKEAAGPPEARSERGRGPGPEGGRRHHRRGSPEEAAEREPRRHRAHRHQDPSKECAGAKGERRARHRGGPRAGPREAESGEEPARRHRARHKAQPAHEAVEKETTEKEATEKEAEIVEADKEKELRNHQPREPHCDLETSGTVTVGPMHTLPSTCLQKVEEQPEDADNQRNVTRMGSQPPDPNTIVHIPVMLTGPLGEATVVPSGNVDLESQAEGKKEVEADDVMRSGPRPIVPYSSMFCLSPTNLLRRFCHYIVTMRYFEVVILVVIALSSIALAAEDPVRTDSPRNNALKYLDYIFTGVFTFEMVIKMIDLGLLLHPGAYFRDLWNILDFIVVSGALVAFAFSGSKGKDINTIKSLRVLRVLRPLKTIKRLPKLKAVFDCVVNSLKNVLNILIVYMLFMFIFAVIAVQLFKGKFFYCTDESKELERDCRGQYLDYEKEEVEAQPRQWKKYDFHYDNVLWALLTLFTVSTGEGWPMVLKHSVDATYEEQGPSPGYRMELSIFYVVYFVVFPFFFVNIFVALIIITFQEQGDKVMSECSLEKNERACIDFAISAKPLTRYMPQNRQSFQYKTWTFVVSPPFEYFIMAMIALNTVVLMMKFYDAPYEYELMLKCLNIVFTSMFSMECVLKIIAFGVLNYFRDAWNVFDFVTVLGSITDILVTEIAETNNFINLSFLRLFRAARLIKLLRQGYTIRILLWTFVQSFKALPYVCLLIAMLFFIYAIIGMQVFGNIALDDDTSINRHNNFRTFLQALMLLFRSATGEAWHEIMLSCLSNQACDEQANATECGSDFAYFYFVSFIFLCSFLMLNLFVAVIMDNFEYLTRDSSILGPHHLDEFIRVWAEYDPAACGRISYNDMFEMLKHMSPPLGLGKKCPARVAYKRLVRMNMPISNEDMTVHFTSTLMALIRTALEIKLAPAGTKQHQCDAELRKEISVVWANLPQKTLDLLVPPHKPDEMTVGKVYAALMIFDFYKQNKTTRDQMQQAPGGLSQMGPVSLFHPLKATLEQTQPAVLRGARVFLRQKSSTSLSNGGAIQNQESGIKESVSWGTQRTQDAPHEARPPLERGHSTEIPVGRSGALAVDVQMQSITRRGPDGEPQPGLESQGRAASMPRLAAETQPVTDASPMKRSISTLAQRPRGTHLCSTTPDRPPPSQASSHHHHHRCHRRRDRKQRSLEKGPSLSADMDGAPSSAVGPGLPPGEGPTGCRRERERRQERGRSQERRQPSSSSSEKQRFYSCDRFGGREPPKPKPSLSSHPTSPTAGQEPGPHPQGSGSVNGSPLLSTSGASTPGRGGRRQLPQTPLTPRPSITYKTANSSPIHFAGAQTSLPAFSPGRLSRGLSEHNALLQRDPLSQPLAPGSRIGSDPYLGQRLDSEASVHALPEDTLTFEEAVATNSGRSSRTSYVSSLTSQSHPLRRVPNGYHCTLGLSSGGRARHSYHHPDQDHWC
T5 sequence (Q02410 whole entry): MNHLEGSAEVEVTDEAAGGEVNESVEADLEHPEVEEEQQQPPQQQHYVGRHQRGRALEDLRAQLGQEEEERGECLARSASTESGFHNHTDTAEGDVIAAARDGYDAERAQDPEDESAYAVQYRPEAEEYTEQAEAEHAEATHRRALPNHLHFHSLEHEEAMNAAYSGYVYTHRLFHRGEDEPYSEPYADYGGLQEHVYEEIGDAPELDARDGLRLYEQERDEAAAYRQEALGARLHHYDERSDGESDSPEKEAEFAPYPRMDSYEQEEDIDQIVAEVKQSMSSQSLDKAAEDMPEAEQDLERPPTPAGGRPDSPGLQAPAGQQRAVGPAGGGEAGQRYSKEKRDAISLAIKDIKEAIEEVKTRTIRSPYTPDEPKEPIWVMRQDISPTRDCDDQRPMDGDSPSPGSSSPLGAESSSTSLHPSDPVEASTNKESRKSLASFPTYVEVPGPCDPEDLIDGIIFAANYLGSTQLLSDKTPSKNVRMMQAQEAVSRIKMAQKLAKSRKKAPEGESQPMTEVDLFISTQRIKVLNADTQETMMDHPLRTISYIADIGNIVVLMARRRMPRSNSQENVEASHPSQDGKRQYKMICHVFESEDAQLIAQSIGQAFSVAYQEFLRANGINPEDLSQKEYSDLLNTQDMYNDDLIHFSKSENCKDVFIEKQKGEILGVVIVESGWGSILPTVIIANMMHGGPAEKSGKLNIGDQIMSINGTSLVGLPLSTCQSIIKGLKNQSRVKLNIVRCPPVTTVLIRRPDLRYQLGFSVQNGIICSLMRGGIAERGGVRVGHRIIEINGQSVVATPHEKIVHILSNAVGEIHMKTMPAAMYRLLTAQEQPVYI
Sequence of Serine/threonine-protein phosphatase PP1-alpha catalytic subunit (P62136 whole entry): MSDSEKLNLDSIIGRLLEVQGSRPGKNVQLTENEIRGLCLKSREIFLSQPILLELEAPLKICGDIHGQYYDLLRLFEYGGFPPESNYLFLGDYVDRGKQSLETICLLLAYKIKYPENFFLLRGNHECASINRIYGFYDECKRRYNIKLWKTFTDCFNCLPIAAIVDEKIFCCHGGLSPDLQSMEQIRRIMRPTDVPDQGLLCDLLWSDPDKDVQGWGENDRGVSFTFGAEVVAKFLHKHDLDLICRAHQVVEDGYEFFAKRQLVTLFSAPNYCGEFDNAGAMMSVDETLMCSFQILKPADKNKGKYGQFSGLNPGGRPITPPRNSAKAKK

Q: For `S=C(NCCc1c[nH]c2ccccc12)NC1CC1`, which AC50 [1] is on record?
A: 51 µM (active)

Q: Which results are given for `Clc1ccccc1CSc1nnc(-c2ccccn2)n1Cc1ccco1`?
A: IC50 [2]: > 32 µM (inactive); IC50 (Mu-type opioid receptor [3]): > 32 µM (inactive); EC50 [4]: > 10 µM (inactive); EC50 [5]: 11.6 µM (inactive); EC50 [6]: > 64 µM (inactive); EC50 [7]: 10.4 µM (active); EC50 (Mu-type opioid receptor [8]): > 32 µM (inactive); IC50 [9]: > 32 µM (inactive); EC50 (Mu-type opioid receptor [10]): > 32 µM (inactive); EC50 [11]: > 32 µM (inactive); EC50 [12]: 9.07 µM (active)

Q: With `O=C1NC(=S)N(c2ccc(F)cc2)C(=O)/C1=C/c1ccco1` as the molecule, how does the EC50 [13] read?
A: 11.1 µM (active)

Q: What about the IC50 [14] of the same molecule?
A: 3.33 µM (active)

Q: What about the IC50 [15] of the same molecule?
A: 1.36 µM (active)

Q: What about the IC50 [16] of the same molecule?
A: < 1.23 µM (inactive)

Q: And the IC50 [17]?
A: > 67 µM (not active)

Q: What about the IC50 [18] of the same molecule?
A: 4.45 µM (active)

Q: What about the IC50 [19] of the same molecule?
A: 8.21 µM (active)

Q: What about the IC50 [20] of the same molecule?
A: < 1.23 µM (inactive)

Q: With `C/C(=N\Nc1ccc2ccccc2n1)c1ccccc1O` as the molecule, how does the IC50 (Apelin receptor) read?
A: 4.12 µM (active)

Q: For `O=C1c2ccccc2SC1c1ccccc1` (stereo not given), which IC50 [21] is on record?
A: > 100 µM (inactive)

Q: What about the IC50 (Phosphomannomutase 2) of the same molecule?
A: > 100 µM (inactive)

Q: For `COc1cccc(C2CC3=Nc4ccccc4N(C(=O)CCC(=O)O)C(c4ccc(F)cc4)C3=C(O)C2)c1` (stereo not given), which AC50 (CAAX prenyl protease 1) is on record?
A: 21.6 µM (active)

Q: And the AC50 (Trypsin)?
A: 12 µM (active)
